Reference: PubChem BioAssay (NCI)
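The compound was tested at five concentrations on cells cultured in 96-well plates, with a 48-hour exposure period. TGI is the concentration that stops growth completely.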

Key:
Assay in all cases: NCI tumour cell line growth inhibition, 48 h
[1] = tested on: SF-295 CNS
[2] = tested on: BT-549 breast
[3] = tested on: HS 578T breast
[4] = tested on: COLO 205 colon
[5] = tested on: SW-620 colon
[6] = tested on: SF-539 CNS
[7] = tested on: K-562 leukemia
[8] = tested on: UO-31 renal
[9] = tested on: OVCAR-5 ovarian
[10] = tested on: SN12C renal
[11] = tested on: HT29 colon
[12] = tested on: A498 renal
[13] = tested on: UACC-257 melanoma
[14] = tested on: 786-0 renal
[15] = tested on: OVCAR-3 ovarian
[16] = tested on: U251 CNS
[17] = tested on: SF-268 CNS
[18] = tested on: OVCAR-4 ovarian
[19] = tested on: MDA-MB-435
[20] = tested on: HOP-92 NSCLC
[21] = tested on: SR leukemia
[22] = tested on: CCRF-CEM leukemia
[23] = tested on: EKVX NSCLC
[24] = tested on: MDA-MB-231 breast
[25] = tested on: HCC-2998 colon
[26] = tested on: SNB-19 CNS
[27] = tested on: TK-10 renal
[28] = tested on: HCT-15 colon
[29] = tested on: RXF 393 renal
[30] = tested on: PC-3 prostate
[31] = tested on: OVCAR-8 ovarian
[32] = tested on: M14 melanoma
[33] = tested on: LOX IMVI melanoma
[34] = tested on: ACHN renal
[35] = tested on: CAKI-1 renal
[36] = tested on: MDA-N
[37] = tested on: SK-MEL-28 melanoma
[38] = tested on: A549 NSCLC
[39] = tested on: HL-60(TB) leukemia
[40] = tested on: HCT-116 colon
[41] = tested on: SK-MEL-2 melanoma
[42] = tested on: IGROV1 ovarian
[43] = tested on: NCI/ADR-RES ovarian
[44] = tested on: NCI-H23 lung
[45] = tested on: KM12 colon
[46] = tested on: MOLT-4 leukemia
[47] = tested on: MCF7 breast
[48] = tested on: UACC-62 melanoma
[49] = tested on: T-47D breast
[50] = tested on: HOP-62 NSCLC
[51] = tested on: SK-MEL-5 melanoma
[52] = tested on: DU-145 prostate
[53] = tested on: NCI-H460 lung
[54] = tested on: NCI-H522 lung
[55] = tested on: NCI-H226 lung
[56] = tested on: RPMI-8226 leukemia
[57] = tested on: SK-OV-3 ovarian
[58] = tested on: SNB-75 CNS
[59] = tested on: MALME-3M melanoma

Structure (SMILES): CC(C)(C)OC(=O)NC12C3C4C1C1C2C3C41NC(=O)OC(C)(C)C (stereo not given)
- TGI [1]: > 100 µM
- TGI [2]: > 100 µM
- TGI [3]: > 100 µM
- TGI [4]: > 100 µM
- TGI [5]: > 100 µM
- TGI [6]: 93.9 µM
- TGI [7]: > 100 µM
- TGI [8]: > 100 µM
- TGI [9]: > 100 µM
- TGI [10]: > 100 µM
- TGI [11]: > 100 µM
- TGI [12]: > 100 µM
- TGI [13]: > 100 µM
- TGI [14]: > 100 µM
- TGI [15]: > 100 µM
- TGI [16]: > 100 µM
- TGI [17]: > 100 µM
- TGI [18]: > 100 µM
- TGI [19]: > 100 µM
- TGI [20]: > 100 µM
- TGI [21]: > 100 µM
- TGI [22]: 61.7 µM
- TGI [23]: > 100 µM
- TGI [24]: 92.1 µM
- TGI [25]: > 100 µM
- TGI [26]: > 100 µM
- TGI [27]: > 100 µM
- TGI [28]: > 100 µM
- TGI [29]: 84.4 µM
- TGI [30]: > 100 µM
- TGI [31]: > 100 µM
- TGI [32]: > 100 µM
- TGI [33]: > 100 µM
- TGI [34]: > 100 µM
- TGI [35]: > 100 µM
- TGI [36]: > 100 µM
- TGI [37]: > 100 µM
- TGI [38]: > 100 µM
- TGI [39]: 53.9 µM
- TGI [40]: > 100 µM
- TGI [41]: > 100 µM
- TGI [42]: > 100 µM
- TGI [43]: > 100 µM
- TGI [44]: > 100 µM
- TGI [45]: 39.3 µM
- TGI [46]: 40.4 µM
- TGI [47]: 95.9 µM
- TGI [48]: > 100 µM
- TGI [49]: > 100 µM
- TGI [50]: > 100 µM
- TGI [51]: > 100 µM
- TGI [52]: > 100 µM
- TGI [53]: > 100 µM
- TGI [54]: > 100 µM

Structure (SMILES): Cn1cnc(N)c(N=O)c1=O
- TGI [55]: > 10 µM
- TGI [1]: > 10 µM
- TGI [2]: > 10 µM
- TGI [3]: > 10 µM
- TGI [4]: > 10 µM
- TGI [5]: > 10 µM
- TGI [56]: > 10 µM
- TGI [6]: > 10 µM
- TGI [7]: > 10 µM
- TGI [9]: > 10 µM
- TGI [10]: > 10 µM
- TGI [11]: > 10 µM
- TGI [12]: > 10 µM
- TGI [13]: > 10 µM
- TGI [14]: > 10 µM
- TGI [15]: > 10 µM
- TGI [16]: > 10 µM
- TGI [17]: > 10 µM
- TGI [18]: > 10 µM
- TGI [19]: > 10 µM
- TGI [21]: > 10 µM
- TGI [22]: > 10 µM
- TGI [23]: > 10 µM
- TGI [57]: > 10 µM
- TGI [24]: > 10 µM
- TGI [25]: > 10 µM
- TGI [58]: > 10 µM
- TGI [26]: > 10 µM
- TGI [27]: > 10 µM
- TGI [28]: > 10 µM
- TGI [29]: > 10 µM
- TGI [30]: > 10 µM
- TGI [31]: > 10 µM
- TGI [32]: > 10 µM
- TGI [33]: > 10 µM
- TGI [34]: > 10 µM
- TGI [35]: > 10 µM
- TGI [36]: > 10 µM
- TGI [37]: > 10 µM
- TGI [38]: > 10 µM
- TGI [39]: > 10 µM
- TGI [40]: > 10 µM
- TGI [41]: > 10 µM
- TGI [42]: > 10 µM
- TGI [43]: > 10 µM
- TGI [44]: > 10 µM
- TGI [45]: > 10 µM
- TGI [46]: > 10 µM
- TGI [47]: > 10 µM
- TGI [59]: > 10 µM
- TGI [48]: > 10 µM
- TGI [49]: > 10 µM
- TGI [50]: > 10 µM
- TGI [51]: > 10 µM
- TGI [52]: > 10 µM
- TGI [53]: > 10 µM
- TGI [54]: > 10 µM

Structure (SMILES): C/C=C(\C)C(=O)OC1CC(OC(C)=O)C2(C(=O)OC)COC3C2C1(C)C1C2(C(=O)OC)OCC1(C3O)C1(O)C3CC(C4(O)C=COC4O3)C1(C)O2 (stereo not given)
- TGI [55]: > 100 µM
- TGI [1]: > 100 µM
- TGI [2]: > 100 µM
- TGI [3]: > 100 µM
- TGI [4]: > 100 µM
- TGI [5]: > 100 µM
- TGI [56]: > 100 µM
- TGI [6]: > 100 µM
- TGI [7]: > 100 µM
- TGI [8]: > 100 µM
- TGI [9]: > 100 µM
- TGI [10]: > 100 µM
- TGI [11]: > 100 µM
- TGI [12]: > 100 µM
- TGI [13]: > 100 µM
- TGI [14]: > 100 µM
- TGI [15]: > 100 µM
- TGI [16]: > 100 µM
- TGI [17]: > 100 µM
- TGI [18]: > 100 µM
- TGI [19]: > 100 µM
- TGI [20]: > 100 µM
- TGI [21]: > 100 µM
- TGI [23]: > 100 µM
- TGI [57]: > 100 µM
- TGI [24]: > 100 µM
- TGI [25]: > 100 µM
- TGI [58]: > 100 µM
- TGI [27]: > 100 µM
- TGI [28]: > 100 µM
- TGI [29]: > 100 µM
- TGI [30]: > 100 µM
- TGI [31]: > 100 µM
- TGI [32]: > 100 µM
- TGI [33]: > 100 µM
- TGI [34]: > 100 µM
- TGI [35]: > 100 µM
- TGI [36]: > 100 µM
- TGI [37]: > 100 µM
- TGI [38]: > 100 µM
- TGI [39]: > 100 µM
- TGI [40]: > 100 µM
- TGI [41]: > 100 µM
- TGI [42]: > 100 µM
- TGI [43]: > 100 µM
- TGI [44]: > 100 µM
- TGI [45]: > 100 µM
- TGI [46]: > 100 µM
- TGI [47]: > 100 µM
- TGI [48]: > 100 µM
- TGI [49]: > 100 µM
- TGI [50]: > 100 µM
- TGI [51]: > 100 µM
- TGI [52]: > 100 µM
- TGI [53]: > 100 µM
- TGI [54]: > 100 µM

Structure (SMILES): COC(=O)c1ccccc1C1CN=NC12Cc1c(ccc3c1CCC3)C2=O (stereo not given)
- TGI [55]: > 100 µM
- TGI [1]: > 100 µM
- TGI [2]: > 100 µM
- TGI [3]: > 100 µM
- TGI [4]: > 100 µM
- TGI [5]: > 100 µM
- TGI [56]: 86 µM
- TGI [6]: > 100 µM
- TGI [7]: > 100 µM
- TGI [8]: > 100 µM
- TGI [9]: > 100 µM
- TGI [10]: > 100 µM
- TGI [11]: > 100 µM
- TGI [13]: 95.1 µM
- TGI [14]: > 100 µM
- TGI [15]: > 100 µM
- TGI [16]: > 100 µM
- TGI [17]: > 100 µM
- TGI [18]: > 100 µM
- TGI [19]: 56.2 µM
- TGI [20]: > 100 µM
- TGI [21]: > 100 µM
- TGI [22]: > 100 µM
- TGI [23]: > 100 µM
- TGI [57]: > 100 µM
- TGI [24]: > 100 µM
- TGI [25]: > 100 µM
- TGI [58]: > 100 µM
- TGI [26]: > 100 µM
- TGI [27]: > 100 µM
- TGI [28]: > 100 µM
- TGI [29]: > 100 µM
- TGI [30]: > 100 µM
- TGI [31]: > 100 µM
- TGI [32]: > 100 µM
- TGI [33]: 60.4 µM
- TGI [34]: > 100 µM
- TGI [35]: > 100 µM
- TGI [36]: 49.5 µM
- TGI [37]: > 100 µM
- TGI [38]: > 100 µM
- TGI [39]: 59.3 µM
- TGI [40]: > 100 µM
- TGI [41]: > 100 µM
- TGI [42]: > 100 µM
- TGI [43]: > 100 µM
- TGI [44]: > 100 µM
- TGI [45]: > 100 µM
- TGI [46]: > 100 µM
- TGI [47]: > 100 µM
- TGI [59]: > 100 µM
- TGI [48]: > 100 µM
- TGI [49]: > 100 µM
- TGI [50]: > 100 µM
- TGI [51]: 58.6 µM
- TGI [52]: > 100 µM
- TGI [53]: > 100 µM
- TGI [54]: 43.7 µM
